In US9655891B1, “Use of isoquinoline derivatives for diabetic wound healing” (ZIH YUAN TANG Biotechnology Co., Ltd, priority 2016, dated 2017):

Tests used:
[1] = test system: AMP-dependent protein kinase (AMPK); settings: disclosed in U.S. patent application Ser. No. 14/492,547; cited from earlier work
[2] = test system: wounds of STZ induced diabetic rats; test: Excisional full-thickness skin wound healing in STZ induced diabetic rats (recovery rate); assay type: in vivo, Wistar rats
Procedure: Salsolinol ointments at 0.01 mg/g, 0.03 mg/g, 0.1 mg/g, and 0.3 mg/g were prepared respectively by dissolving 0.5 mg, 1.5 mg, 5 mg, and 15 mg of salsoinol in 2.5 mL of glycerol (Sigma Inc., MO, USA) plus 1.0 mL of Creagel emulsifier (First Chemical, TPE, Taiwan) and 45.5 mL of distilled water. Vehicle was composed of glycerol (2.5 mL), Creagel emulsifier (1.0 mL), and distilled water (45.5 mL).
Swivazin®-HN cream was used as positive control for treating the wounds of STZ induced diabetic rats, which contained asiaticoside (4 mg/g), isolated from Centella asiatica. […]. Ethnopharmacology 65 (1999): 1-11].
Adult male Wistar rats were used at four weeks of age, purchased from BioLASCO Taiwan, and were acclimatized in a room with 12-12 h light (7:00 A.M. to 7:00 P.M.)-dark (7:00 P.M. to 7:00 A.M.) cycle, a temperature of 23±1° C., and a humidity of 65±5%.
Each rat had free access to both water and standard rodent soft chow ad libitum. STZ was injected intraperitoneally at a dose of 65 mg/Kg body weight.
All experimental procedures were approved by and performed in compliance with the guidelines of the Institutional Animal Care and Use Committee (IACUC). All surgeries were conducted while animals were under continuous anesthesia with 4% isoflurane.
The dorsal skin was shaved and then disinfected with 10% povidone-iodine before an excisional full-thickness square-shaped skin wound (1.5×1.5 cm) was induced using a sterile wound maker. Animal was then housed alone in its cage to avoid any further wound damage.
. The groups were administered at the same amount once daily and the wounds were photopictured on Day 1, Day 3, Day 5, Day 7, Day 10, and Day 15 and the sizes of the wounds were analyzed using Visual Basic 6.0. Wound closure at experimental time points was calculated as percentage of initial wound area, called as “recovery rate.”

SMILES	activation of AMPK [1]	recovery rate (in words) ([2]; FIG. 2, salsolinol 0.01 mg/g, Day 7-15)	wound closure and healing ([2]; FIG. 2, salsolinol at all the concentrations (0.01, 0.03, 0.1, 0.3 mg/g))	recovery rate (wound closure as percentage of initial wound area) ([2]; FIG. 2, salsolinol ointment 0.01 mg/g once daily, topical, Day 15)	difference in recovery between D+Salsolinol and Swivazin (DP, positive control) ([2]; FIG. 3)	recovery rate compared with groups without treatment (DC) or vehicle (DV) ([2]; FIG. 3, D+Salsolinol)
COc1ccc(C[C@H]2c3cc(O)c(OC)cc3CCN2C)cc1O [reticuline, reference compound]	can activate AMP-dependent protein kinase (AMPK)					
CC1NCCc2cc(O)c(O)cc21 (stereo not shown) [salsolinol]	can activate AMP-dependent protein kinase (AMPK)	relatively improved recovery rate	could enhance the wound closure and healing	over 97%	no obvious difference	significantly increased recovery rate
